Measurements taken from patent US20230127499A1, “PEPTIDES AND ADJUVANTS FOR AU[…] […] FOR CORONAVIRUS” (FIGENE, LLC, priority 2020, published 2023).
Where two headings read alike, the source gives them in different places.

What was measured:
[1] = system: human peripheral blood mononuclear cell (PBMC) derived monocytes; assay: Endotoxin-induced TNF production in monocyte/fibroblast cultures (ELISA); format: cell-based; conditions: LPS 1 ug/ml, FIG. 5
Method: Hydroxychloroquine (Sigma Aldrich) was diluted at the concentrations indicated. Levels of tumor necrosis factor (TNF) were assessed by ELISA.

neutrophils = conditions: cited from earlier work; for neutrophil apoptosis: 100 ng/mL
healthy rats = conditions: 500 ng intra-tracheally; within 5 hours; versus saline-treated control rats; cited from earlier work

With `CCN(CCO)CCCC(C)Nc1ccnc2cc(Cl)ccc12` (stereo not shown) [hydroxychloroquine] as the compound, how does the “production of TNF-alpha from macrophages” value [1] read?
The value was “suppressed production of TNF-alpha”.

For TNF-alpha, which neutrophil apoptosis (neutrophils; at 4-8 h) is on record?
Its neutrophil apoptosis is “increased”.

What about the neutrophil apoptosis (neutrophils; at 24 h) of the same compound?
The neutrophil apoptosis was “markedly suppressed”.

What about the “levels of IL-8” value (neutrophils; PMN cultured for 24 h) of the same compound?
Its value is “markedly increased”.

And the lung lavage neutrophils (healthy rats)?
The lung lavage neutrophils was “substantially higher”.

And the lung leak (healthy rats)?
The lung leak was “substantially higher”.

And the “lung myeloperoxidase (MPO) activity” value (healthy rats)?
Its value is “substantially higher”.
